Assay results reported in patent US10316039B2, “P2X3 and/or P2X2/3 compounds and methods” (Asana Biosciences, LLC, priority 2013, dated 2019).

Tests used:
P2X3 = target: T1, P2X3 (UniProt P56373); assay: P2X3 FLIPR intracellular calcium assay; format: cell-based; conditions: agonist at EC75, species (human or rat) not given
T1 sequence (P56373 1-397): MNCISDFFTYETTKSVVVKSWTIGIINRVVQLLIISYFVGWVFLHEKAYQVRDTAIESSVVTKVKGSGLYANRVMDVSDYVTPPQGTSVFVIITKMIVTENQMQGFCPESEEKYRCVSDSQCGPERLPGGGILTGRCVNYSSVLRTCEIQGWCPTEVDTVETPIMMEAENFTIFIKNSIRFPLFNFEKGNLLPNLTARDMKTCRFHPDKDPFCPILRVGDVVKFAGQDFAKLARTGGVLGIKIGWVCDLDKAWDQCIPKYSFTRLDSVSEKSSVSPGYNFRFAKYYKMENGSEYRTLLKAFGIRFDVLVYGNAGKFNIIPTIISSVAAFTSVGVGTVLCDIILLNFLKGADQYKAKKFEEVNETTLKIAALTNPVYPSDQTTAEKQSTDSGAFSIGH
Source text: The FLIPR® assay utilizes cells which express human or rat P2X3 or P2X2/3 receptors. […] The PCR product obtained containing the protein coding sequence of rat P2X2 was cloned into EcoRV-digested and dephosphorylated vector pIRES-puro3 within the multiple cloning site (MCS). See, FIG. 1A.
Rat P2X3 (NCBI Accession No: X91167) was amplified by PCR from rat brain cDNA. The PCR product obtained containing the protein coding sequence of rat P2X3 was cloned into EcoRV-digested and dephosphorylated vector pCDNA-Hygro within the multiple cloning site (MCS) (FIG. 1B). Rat P2X3 cloned into pcDNA-Hygro was then subcloned into pcDNA-5/TO at HindIII (5′) and XhoI (3′) sites within the multiple cloning site (MCS) of the vector (FIG. 1C).
(§1) Transfection was carried out using super-coiled constructs (purified using QIAGEN kit) in antibiotic free, serum free DMEM using Lipofectamine® 2000 (Invitrogen) transfection agent. The DNA constructs rat P2X2 in pIRES-Puro3 and rat P2X3 in pCDNA5/TO were co-transfected into TRex293 cells in order to generate the rP2X2/3 stable line. 50 μg/mL hygromycin (Invitrogen) and 0.5 μg/mL puromycin (Fermentek) were used for selection of stable clones of rP2X2/3. Rat P2X3 in pCDNA5/TO DNA construct was transfected to CHO-TRex cells to generate the rP2×3 stable line and 500 μg/mL hygromycin (Invitrogen) was used as selection antibiotic. Transfected stable colonies were then functionally verified and robust clones suitable for assay were clonally purified through dilutions.
(§2) Cryo-vial containing 6×10^6 cells (human P2X3-HEK/human P2X2/3-TRex293/rat P2X2/3-TRex293/rat P2X3 TRex-CHO) was thawed in a 37° C. water bath. Cells were suspended in 20 mL of respective cell plating media (See annexure for composition) in a 50 mL centrifuge tube. The cell viability was checked with the help of Trypan Blue dye. Upon washing, cells were plated in a black 384-well clear bottomed, sterile poly-D-lysine coated plate such that, each well contained 10,000 cells (15,000/well for hP2X3) in 30 μL cell plating media. The plate was incubated in a 5% CO2 incubator at 37° C. for 24 h.
(§3) The next day, prior to the assay, the cell plating media was removed from each well by decanting and gentle tapping. Thirty μL of FLIPR Calcium 4 dye solution was added to each well. The plate was incubated at 37° C. for 45 min (60 min for hP2X3). The plate was next equilibrated at room temperature for 15 minutes before placing it in a 384 well FLIPR for the assay.
Dilutions were mixed with assay buffer just before performing the assay.
(§4) Compounds were added to the respective wells of the assay-ready cell plate with the help of the FLIPR and fluorescence readings were captured for 5 min to observe any possible agonistic property of the compounds. The plate was then incubated at room temperature for 15 min. The cells were stimulated with respective agonist EC75 concentration and the fluorescence readings were captured for another 5 min by FLIPR. The difference in fluorescence readings in presence of the compounds were compared with that of the control wells (wells having no compound) to calculate the inhibitory potency of the compounds. The IC50 values of the compounds were determined using the Graph pad Prism software.
(vi) Dye Solution Composition • 1×FLIPR Calcium 4 dye in assay buffer (Molecular devices Cat# R8141) • 1.8 mM Probenecid (Sigma Cat# P8761) • pH adjusted to 7.4

P2X2/3 = target: T2, P2X2/3 (Homo sapiens, UniProt P56373+Q9UBL9); assay: P2X2/3 FLIPR intracellular calcium assay; format: cell-based; conditions: agonist at EC75, species (human or rat) not given
T2 sequence (Q9UBL9 1-471): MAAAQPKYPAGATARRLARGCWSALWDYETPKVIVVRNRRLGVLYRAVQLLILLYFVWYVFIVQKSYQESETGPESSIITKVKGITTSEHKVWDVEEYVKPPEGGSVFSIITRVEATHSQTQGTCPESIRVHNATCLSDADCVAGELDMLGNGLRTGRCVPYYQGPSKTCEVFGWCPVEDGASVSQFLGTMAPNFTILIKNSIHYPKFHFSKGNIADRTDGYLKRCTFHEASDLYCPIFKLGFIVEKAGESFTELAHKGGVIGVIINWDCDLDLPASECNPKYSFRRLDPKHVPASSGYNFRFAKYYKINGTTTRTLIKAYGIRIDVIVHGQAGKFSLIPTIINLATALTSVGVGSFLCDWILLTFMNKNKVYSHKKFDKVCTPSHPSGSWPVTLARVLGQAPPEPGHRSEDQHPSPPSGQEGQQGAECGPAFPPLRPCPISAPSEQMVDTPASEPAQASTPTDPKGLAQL
T2 sequence (P56373 1-397): T1 sequence (P56373 1-397)
Source text: The FLIPR® assay utilizes cells which express human or rat P2X3 or P2X2/3 receptors. Recombinant cells expressing hP2X3 (Cat#6188) and hP2X2/3 (Cat#6179) were procured from Chantest Corp. Rat P2X2 (NCBI Accession No: U14414) was amplified by PCR from PC12 cDNA (a rat adrenal medulla cell line). The PCR product obtained containing the protein coding sequence of rat P2X2 was cloned into EcoRV-digested and dephosphorylated vector pIRES-puro3 within the multiple cloning site (MCS). See, FIG. 1A.
as §1, §2, §3
Compounds were dissolved in DMSO and serially diluted following 11 point half log (3.16 fold) dilution with a starting concentration of 2 mM. Dilutions were mixed with assay buffer just before performing the assay.
as §4
(ii) Cell Plating Media for hP2X3-HEK and hP2X2/3-TRex293 Cells • DMEM/F12 (1:1) HAM media (Invitrogen; Cat#11039) • 1×NEAA (Invitrogen; Cat#11140) • 25 mM HEPES (Invitrogen; Cat#15630) • 1 mM sodium pyruvate (Invitrogen; Cat#11360) • 10% tetracycline negative FBS (PAA; Cat# A15-209) • 1 μg/mL doxycycline (Clontech; Cat#63131) [for hP2X2/3-TRex293 cells only]
(iii) Cell Plating Media for rP2X2/3-TRex293 Cells • DMEM media (Invitrogen; Cat#11965) • 25 mM HEPES (Invitrogen; Cat#15630) • 10% tetracycline negative FBS (PAA; Cat# A15-209) • 1 μg/mL Doxycycline (Clontech; Cat#63131)
(v) Assay Buffer Composition • HBSS (Invitrogen Cat#14025) • 20 mM HEPES (Invitrogen Cat#15630) • 0.01% F127 (Sigma Cat# P2443) • 1.8 mM CaCl2 (Sigma Cat# C5080) • pH adjusted to 7.4 […]

Row | Compound | IC50 (P2X3) [nM] | IC50 (P2X2/3) [nM]
1 | Cc1ccc(-c2cnc3c(-n4nncc4C4CCC4)cc(C(=O)N[C@@H](C)c4nnc[nH]4)cn23)s1 [Example 43] | 1 to 100 | 1 to 100
2 | COc1ncc(CNC(=O)c2cc(-n3nncc3C(F)(F)F)c3ncc(-c4ccc(C)s4)n3c2)cn1 [Example 44] | 1 to 100 | 1 to 100
3 | Cc1ccc(CNC(=O)c2cc(-n3nncc3C(C)C)c3ncc(-c4ccc(C)s4)n3c2)cn1 [Example 45] | > 10000 | 1 to 100
4 | Cc1ccc(-c2cnc3c(-n4nncc4C(C)(C)C)cc(C(=O)N[C@@H](C)c4nnc[nH]4)cn23)s1 [Example 46] | 1 to 100 | 1 to 100
5 | Cc1ncc(CNC(=O)c2cc(-n3nncc3C(F)F)c3ncc(-c4ncc(C)s4)n3c2)cn1 [Example 47] | 1 to 100 | 1 to 100
6 | Cc1ccc(CNC(=O)c2cc(-n3nncc3C(F)F)c3ncc(-c4ccc(C)o4)n3c2)cn1 [Example 48] | 1 to 100 | 1 to 100
7 | Cc1ncc(CNC(=O)c2cc(-n3nncc3C3CCC3)c3ncc(-c4ccc(C)s4)n3c2)cn1 [Example 49] | > 10000 | 1 to 100
8 | C[C@H](NC(=O)c1cc(-n2nncc2C(F)F)c2ncc(-c3ccc(C#N)s3)n2c1)c1nnc[nH]1 [Example 51] | 100 to 1000 | 1000 to 10000
9 | Cc1cnc(-c2cnc3c(-n4nncc4C(F)F)cc(C(=O)N[C@@H](C)c4nnc[nH]4)cn23)s1 [Example 53] | 1 to 100 | 1 to 100
10 | Cc1ccc(-c2cnc3c(-n4nncc4C(F)F)cc(C(=O)N[C@H](c4nnc[nH]4)C(C)C)cn23)s1 [Example 54] | 1 to 100 | 1 to 100
11 | Cc1ncc(CNC(=O)c2cc(-n3nncc3C3CCC3)c3ncc(-c4ncc(C)s4)n3c2)cn1 [Example 55] | > 10000 | 100 to 1000
12 | Cc1ccc(CNC(=O)c2cc(-n3nncc3C(F)(F)F)c3ncc(-c4ncc(C)s4)n3c2)cn1 [Example 56] | 1 to 100 | 100 to 1000
13 | Cc1cnc(-c2cnc3c(-n4nncc4C(C)(C)C)cc(C(=O)N[C@@H](C)c4nnc[nH]4)cn23)s1 [Example 57] | 1 to 100 | 100 to 1000
14 | CCc1cnnn1-c1cc(C(=O)N[C@@H](CC)c2nnc[nH]2)cn2c(-c3ccc(C)s3)cnc12 [Example 58] | 1 to 100 | 1 to 100
15 | C[C@H](NC(=O)c1cc(-n2nncc2C(F)F)c2ncc(-c3ccc(C(F)(F)F)s3)n2c1)c1nnc[nH]1 [Example 59] | 100 to 1000 | 1000 to 10000
16 | Cc1ccc(-c2cnc3c(-n4nncc4C(F)F)cc(C(=O)N[C@@H](C)c4nnc[nH]4)cn23)o1 [Example 60] | 1 to 100 | 1 to 100

Row | Compound | IC50 (P2X3) [nM] | IC50 (P2X2/3) [nM]
17 | CC[C@H](NC(=O)c1cc(-n2nncc2C(C)C)c2ncc(-c3ccc(C)s3)n2c1)c1nnc[nH]1 [Example 61] | 1 to 100 | 1 to 100
18 | CCc1cnnn1-c1cc(C(=O)N[C@@H](C)c2nnc[nH]2)cn2c(-c3ccc(C)o3)cnc12 [Example 62] | 1 to 100 | 100 to 1000
19 | CCCc1cnnn1-c1cc(C(=O)N[C@@H](C)c2nnc[nH]2)cn2c(-c3ccc(C)s3)cnc12 [Example 63] | 1 to 100 | 1 to 100
20 | CCCc1cnnn1-c1cc(C(=O)NCc2cnc(C)nc2)cn2c(-c3ncc(C)s3)cnc12 [Example 64] | 1 to 100 | 100 to 1000
21 | Cc1ncc(CNC(=O)c2cc(-n3nncc3C(F)F)c3ncc(-c4ccc(C)o4)n3c2)cn1 [Example 65] | 1 to 100 | 1 to 100
22 | Cc1ncc(CNC(=O)c2cc(-n3nncc3C(F)F)c3ncc(-c4cnc(C)s4)n3c2)cn1 [Example 66] | 100 to 1000 | 100 to 1000
23 | CC[C@H](NC(=O)c1cc(-n2nncc2C(C)(C)C)c2ncc(-c3ccc(C)s3)n2c1)c1nnc[nH]1 [Example 67] | 1 to 100 | 1 to 100
24 | Cc1ncc(CNC(=O)c2cc(-n3nncc3C(F)(F)F)c3ncc(-c4ncc(C)s4)n3c2)cn1 [Example 68] | 1 to 100 | 100 to 1000
25 | CC[C@H](NC(=O)c1cc(-n2nncc2C(C)C)c2ncc(-c3ccc(Cl)s3)n2c1)c1nnc[nH]1 [Example 69] | 1 to 100 | 100 to 1000
26 | Cc1ccc(-c2cnc3c(-n4nncc4C(C)(F)F)cc(C(=O)N[C@@H](C)c4nnc[nH]4)cn23)s1 [Example 70] | 1 to 100 | 1 to 100
27 | Cc1ncc(CNC(=O)c2cc(-n3nncc3C(C)(F)F)c3ncc(-c4ncc(C)s4)n3c2)cn1 [Example 71] | 1 to 100 | 100 to 1000
28 | Cc1ncc(CNC(=O)c2cc(-n3nncc3C(C)(F)F)c3ncc(-c4ccc(C)s4)n3c2)cn1 [Example 72] | 1 to 100 | 1 to 100
29 | CCc1cnnn1-c1cc(C(=O)N[C@H](c2nnc[nH]2)C(C)C)cn2c(-c3ccc(C)s3)cnc12 [Example 73] | 100 to 1000 | 100 to 1000
30 | Cc1ccc(-c2cnc3c(-n4nncc4C)cc(C(=O)N[C@H](c4nnc[nH]4)C(C)C)cn23)s1 [Example 74] | 100 to 1000 | 1000 to 10000
31 | CCc1cnnn1-c1cc(C(=O)NCc2cnc(C)nc2)cn2c(-c3ncc(C)s3)cnc12 [Example 75] | 1 to 100 | 100 to 1000
32 | C[C@H](NC(=O)c1cc(-n2nncc2C(C)(F)F)c2ncc(-c3ccc(Cl)s3)n2c1)c1nnc[nH]1 [Example 76] | 1 to 100 | 1 to 100
